{"source": "patent US20050148514A1", "about": "“Method and composition for treatment of angiogenesis” (priority 2003, published 2005)", "molecules": {"B1": {"name": "Ser Cys Tyr Phe Ile Pro Asn Glu Gly Val Pro Gly Asp Ser Thr Arg Lys Cys Met Asp Leu Lys Gly Asn Lys His Pro Ile Asn Ser Glu Trp Gln Thr Asp Asn Cys Glu Thr Cys Thr Cys Tyr Glu Thr Glu Ile Ser Cys Cys … (protein, listed as Homo sapiens)", "chain": "SCYFIPNEGVPGDSTRKCMDLKGNKHPINSEWQTDNCETCTCYETEISCCTLVSTPVGYDKDNCQRIFKKEDCKYIVVEKKDPKKTCSVSEWII", "notes": "Prostate secretory protein, wild type"}}, "key": {"ERK [1]": {"test_system": "ERK", "assay": "Intrinsic effect on ERK phosphorylation (western blot)", "assay_type": "cell-based", "conditions": "MAPK inhibitor added with PCK3145 derivative", "procedure": "In order to investigate the potential intracellular pathways triggered by the PCK3145 derivative, a gene-reporter assay using the SEAP (Secreted Alkaline Phosphatase) Mercury Profiling Kit (CLONTECH) was performed in glioma cells (U-87). This assay enables the monitoring of transcription factors that are triggered by a particular experimental condition by assaying the alkaline phosphatase activity in the extracellular media. […] The induction of the MAPK pathway by the PCK3145 derivative is further confirmed by the rapid and transient induction of ERK phosphorylation between 5-10 minutes (FIG. 8B) and is shown to be dose-dependent (FIG. 8C). Finally, the effects of the PCK3145 derivative were also compared to those of a scrambled peptide."}, "ERK [2]": {"test_system": "ERK", "conditions": "cited from earlier work"}, "tumor growth": {"test_system": "tumor growth", "conditions": "animals, previous results; cited from earlier work"}, "ERK [3]": {"test_system": "ERK", "assay": "Growth factor-induced ERK phosphorylation in HUVEC (western blot)", "assay_type": "cell-based, Human", "conditions": "serum-starved HUVEC, 300 μg/ml for 24 h, then VEGF", "procedure": "(§1) Cell culture. Human umbilical vein endothelial cells (HUVEC) and pulmonary aortic smooth muscle cells (PASMC) were obtained from Clonetics and maintained in endothelial cell basal medium-2, (EBM-2; Clonetics) and smooth muscle medium-2 (SmGM-2; Clonetics), respectively. Cells were cultured at 37° C. under a humidified atmosphere containing 5% CO2. For experimental purposes, cells were plated in 8 100-mm plastic dishes at 5,000 cells/cm^2 and were grown to confluence before overnight serum starvation. Cells were treated with vehicle or with a PCK3145 derivative diluted in 0.1 N NaOH, and stimulated with 50 ng/ml VEGF, PDGF or with 1 μM S1P.\nImmunoprecipitation and immunoblotting procedures. After treatment, cells were washed once with phosphate-buffered saline (PBS) containing 1 mM sodium orthovanadate and were incubated in the same medium for 1 h at 4° C. The cells were solubilized on ice in lysis buffer (150 mM NaCl, 10 mM Tris-HCl, pH 7.4, 1 mM EDTA, 1 mM EGTA, 0.5% Nonidet P-40, 1% Triton X-100) containing 1 mM sodium orthovanadate. The cells were then scraped from the culture dishes and the resulting lysates were clarified by centrifugation at 10,000 g for 10 min. Protein concentrations were determined using the micro bicinchoninic acid method. For immunoprecipitation studies, lysates were clarified by a 1 h incubation at 4° C. with a mixture of Protein A/Protein G Sepharose beads. After removal of the Sepharose beads by low-speed centrifugation, identical amounts of protein (200 μg) from each sample were transferred to fresh tubes and incubated in lysis buffer overnight at 4° C. in the presence of 2 μg/ml of specific antibodies. Immunocomplexes were collected by incubating the mixture with 25 μl (50% suspension) of Protein A—(rabbit primary antibody) or Protein G—(mouse primary antibody) Sepharose beads, for 2 h. Nonspecifically-bound material was removed by washing the beads three times in 1 ml of lysis buffer containing 1 mM sodium orthovanadate, and bound material was solubilized in 25 μl of two-fold concentrated Laemmli sample buffer, boiled 5 min, and resolved by SDS-PAGE. The proteins were transferred onto polyvinylidene difluoride (PVDF) membranes, blocked 1 h at room temperature with Tris-buffered saline/Tween 20 (147 mM NaCl, 20 mM Tris/HCl, pH 7.5, and 0.1% Tween 20) containing 2% bovine serum albumin and incubated overnight at 4° C. with primary antibody.\nVEGF is a strong activator of ERKs (Extracellular-signal-Regulated protein Kinases) 1 and 2 via VEGF receptor 2. In order to test the ability of the PCK3145 derivative in potentially antagonizing VEGF-mediated ERK phosphorylation, serum-starved quiescent endothelial cells (HUVEC) were incubated with vehicle (phosphate-buffered saline (PBS) pH 7.4) or PCK3145 derivative (300 μg/ml) for 24 h and then stimulated with VEGF, bFGF (basic Fibroblast Growth Factor) or S1P (sphingosine-1-phosphate). Cells were washed with PBS containing NaF/Na3VO4 and incubated in the same medium buffer for 1 h at 4° C. The cells were scraped from the culture dishes and the resulting lysates clarified by centrifugation. Western blotting and immunodetection using anti-phosphoERK and anti-ERK antibodies was then performed."}, "VEGFR-2": {"target": "T1, VEGFR-2 (Homo sapiens, UniProt P35968)", "T1 construct": "host or cells: HUVEC", "T1 sequence (P35968 20-1356)": "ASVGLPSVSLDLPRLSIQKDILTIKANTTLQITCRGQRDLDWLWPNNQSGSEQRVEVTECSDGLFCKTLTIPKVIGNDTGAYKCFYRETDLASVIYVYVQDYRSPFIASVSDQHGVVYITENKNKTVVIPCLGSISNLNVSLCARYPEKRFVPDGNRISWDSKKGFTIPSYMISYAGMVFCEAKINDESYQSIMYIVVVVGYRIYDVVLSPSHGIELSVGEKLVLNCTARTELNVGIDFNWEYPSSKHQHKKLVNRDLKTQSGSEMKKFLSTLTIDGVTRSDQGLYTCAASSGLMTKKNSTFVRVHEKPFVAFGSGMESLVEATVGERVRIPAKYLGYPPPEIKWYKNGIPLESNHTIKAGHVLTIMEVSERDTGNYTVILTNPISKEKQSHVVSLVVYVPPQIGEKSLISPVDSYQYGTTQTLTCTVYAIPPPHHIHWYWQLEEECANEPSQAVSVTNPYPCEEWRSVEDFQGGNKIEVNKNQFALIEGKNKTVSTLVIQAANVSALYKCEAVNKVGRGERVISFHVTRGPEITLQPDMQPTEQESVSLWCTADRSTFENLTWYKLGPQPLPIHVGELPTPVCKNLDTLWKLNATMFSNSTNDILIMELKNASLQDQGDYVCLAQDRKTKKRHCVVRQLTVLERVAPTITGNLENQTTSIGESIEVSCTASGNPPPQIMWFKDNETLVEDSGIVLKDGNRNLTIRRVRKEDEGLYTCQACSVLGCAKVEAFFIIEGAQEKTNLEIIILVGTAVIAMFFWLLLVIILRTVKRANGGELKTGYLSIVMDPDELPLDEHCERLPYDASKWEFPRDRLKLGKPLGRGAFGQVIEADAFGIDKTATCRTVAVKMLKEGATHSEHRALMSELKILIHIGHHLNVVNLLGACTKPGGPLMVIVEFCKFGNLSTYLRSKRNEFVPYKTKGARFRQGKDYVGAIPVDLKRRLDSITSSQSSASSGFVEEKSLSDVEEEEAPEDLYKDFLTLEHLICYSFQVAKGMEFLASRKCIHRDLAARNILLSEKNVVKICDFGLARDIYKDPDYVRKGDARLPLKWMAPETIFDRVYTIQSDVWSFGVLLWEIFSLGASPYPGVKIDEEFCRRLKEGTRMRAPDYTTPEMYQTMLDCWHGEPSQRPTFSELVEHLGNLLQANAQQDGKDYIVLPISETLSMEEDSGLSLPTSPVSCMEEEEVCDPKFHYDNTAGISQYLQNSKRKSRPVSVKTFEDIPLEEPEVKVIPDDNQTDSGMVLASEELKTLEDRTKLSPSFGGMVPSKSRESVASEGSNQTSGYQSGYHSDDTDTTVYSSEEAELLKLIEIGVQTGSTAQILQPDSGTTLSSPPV", "assay": "VEGF-induced VEGFR-2 phosphorylation in HUVEC (immunoprecipitation, western blot)", "assay_type": "cell-based", "conditions": "serum-starved HUVEC, 300 μg/ml; 24 h", "procedure": "as §1\nImmunoprecipitation and immunoblotting procedures. After treatment, cells were washed once with phosphate-buffered saline (PBS) containing 1 mM sodium orthovanadate and were incubated in the same medium for 1 h at 4° C. The cells were solubilized on ice in lysis buffer (150 mM NaCl, 10 mM Tris-HCl, pH 7.4, 1 mM EDTA, 1 mM EGTA, 0.5% Nonidet P-40, 1% Triton X-100) containing 1 mM sodium orthovanadate. The cells were then scraped from the culture dishes and the resulting lysates were clarified by centrifugation at 10,000 g for 10 min. Protein concentrations were determined using the micro bicinchoninic acid method. For immunoprecipitation studies, lysates were clarified by a 1 h incubation at 4° C. with a mixture of Protein A/Protein G Sepharose beads. After removal of the Sepharose beads by low-speed centrifugation, identical amounts of protein (200 μg) from each sample were transferred to fresh tubes and incubated in lysis buffer overnight at 4° C. in the presence of 2 μg/ml of specific antibodies. […]\nThe multifunctionality of VEGF at the cellular level results from its ability to initiate a diverse, complex and integrated network of signaling pathways via its major receptor, VEGFR-2. […] After each treatment, equal amounts of protein were immunoprecipitated with anti-VEGFR-2 polyclonal antibodies and analysed by Western blotting."}, "skeletal metastasis": {"test_system": "skeletal metastasis", "conditions": "cited from earlier work"}, "tumor cells": {"test_system": "tumor cells", "conditions": "cited from earlier work"}}, "note": "Where no end group is shown, it is not given here. The star is where a group is joined. Acm = CC(=O)NC*"}
{"molecule": "COc1cccc(-c2cc(=O)c3ccccc3o2)c1N", "note": "[PD98059, reference compound]", "values": [{"measurement": "effect on induction of ERK phosphorylation by the PCK3145 derivative", "setting": "ERK [1]", "result": "antagonized"}, {"measurement": "ERK phosphorylation (pharmacological inhibitor, documented)", "setting": "ERK [2]", "result": "documented pharmacological inhibitor of ERK phosphorylation"}]}
{"molecule": "EWQTDNCETCTCYET (cysteine pairing not given here) [PCK3145]", "values": [{"measurement": "tumor growth", "setting": "tumor growth", "result": "tumor growth inhibition"}]}
{"molecule": "Thr-Cys(Acm)-Glu-Asn-Cys(Acm)-Thr-Glu-Thr-Gln-Trp-Cys(Acm)-Glu-Thr-Asp-Tyr (TC(Acm)ENC(Acm)TETQWC(Acm)ETDY) [scrambled peptide, negative control, reference compound]", "values": [{"measurement": "ERK phosphorylation induced by VEGF", "setting": "ERK [3]", "result": "lack of effect"}, {"measurement": "phosphorylation of VEGFR-2 induced by VEGF", "setting": "VEGFR-2", "result": "lack of effect"}]}
{"molecule": "B1", "values": [{"measurement": "calcium levels", "setting": "skeletal metastasis; animal modeling prostate cancer", "result": "reduction in calcium levels"}, {"measurement": "development of skeletal metastasis", "setting": "skeletal metastasis; in vivo", "result": "reduces the development of skeletal metastasis"}, {"measurement": "growth of tumor cells", "setting": "tumor cells", "result": "inhibits growth"}]}
